# Results published in patent EP0326331B1, “Substituted quinolines and cinnolines” (Dow AgroSciences LLC, priority 1988, dated 1989).
# Where two headings read alike, the source gives them in different places.
# What was measured:
# Assay type in all cases: in vivo
# [1] = tested on: Septoria tritici (leaf blotch); assay: Test 1 greenhouse foliar spray screen, leaf blotch on wheat; conditions: disease control rating, foliar spray on wheat, 400 ppm (+++ at 100 ppm)
# [2] = tested on: southern armyworm (Spodopetra eridania Cramer); assay: Mite/insect screen, SAW; conditions: Spodoptera eridania, percent mortality, read-out: SAW RESULTS %; for mortality at 400 ppm: rate 400 ppm
# Procedure, shortened: (§1)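 Compounds dissolved in acetone/alcohol (50:50) with TOXIMUL R and S emulsifiers, diluted in water to test concentrations, and sprayed to runoff on both leaf surfaces at 10 psi, then dried 1 h. For armyworm, excised treated leaves were offered to larvae; percent mortality scored after standard exposure periods.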
# [3] = tested on: Botrytis cinerea (gray mold); assay: Test 1 greenhouse foliar spray screen, gray mold on grape berries; conditions: for pest or weed control at 400 ppm: Botrytis cinerea, foliar, Test 1, spray on grape berries, disease control rating at 400 ppm / 100 ppm
# [4] = tested on: Pseudoperonospora cubensis (downy mildew); assay: Test 1 greenhouse foliar spray screen, downy mildew on squash; conditions: for pest or weed control at 400 ppm: Pseudoperonospora cubensis, foliar, Test 1, foliar spray on squash, disease control rating at 400 ppm / 100 ppm, read-out: DOWN MDEW
# [5] = tested on: Erysiphe graminis tritici (powdery mildew); assay: Test 1 greenhouse foliar spray screen, powdery mildew on wheat; conditions: for pest or weed control at 400 ppm: Blumeria graminis, foliar, Test 1, foliar spray on wheat, disease control rating at 400 ppm / 100 ppm, read-out: POWD MDEW
# [6] = tested on: Puccinia recondita tritici (leaf rust); assay: Test 1 greenhouse foliar spray screen, leaf rust on wheat; conditions: for pest or weed control at 400 ppm: Puccinia recondita, foliar, Test 1, foliar spray on wheat, disease control rating at 400 ppm / 100 ppm
# [7] = tested on: Venturia inaequalis (apple scab); assay: Test 1 greenhouse foliar spray screen, apple scab on apple seedling; conditions: disease control rating, foliar spray on apple seedling, 400 ppm (+++ at 100 ppm)
# [8] = tested on: Pyricularia oryzae (rice blast); assay: whole plant or invertebrate; conditions: for pest or weed control at 400 ppm: Pyricularia oryzae, foliar, read-out: RICE BLAST, Test 1, foliar spray on rice, disease control rating at 400 ppm / 100 ppm
# corn rootworm = assay: Mite/insect screen, CRW; conditions: percent mortality, read-out: CRW RESULTS %; for mortality at 24 ppm: CRW rate 24.00 ppm
# Procedure, shortened: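 Compounds dissolved in 50:50 acetone/alcohol with TOXIMUL R and S emulsifiers (23 and 13 g/L), then diluted in water to the stated test concentrations. Percent mortality of corn rootworm scored after standard exposure periods.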
# [9] = tested on: Twospotted spider mites (Tetranychus urticae Koch); assay: Mite/insect screen, SM; conditions: Tetranychus urticae, percent mortality, read-out: SM RESULTS %; for mortality at 400 ppm: rate 400 ppm
# Procedure, shortened: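 Compounds dissolved in 50:50 acetone/alcohol containing sulfonate/nonionic emulsifier blends, then diluted with water to the indicated concentrations. Leaves sprayed on both surfaces to runoff at 10 psi and dried one hour. Percent mortality scored after standard exposure periods.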
# [10] = tested on: melon aphids (Aphis gossypii Glover); assay: Mite/insect screen, MA; conditions: Aphis gossypii, percent mortality, read-out: MA RESULTS %; for mortality at 400 ppm: rate 400 ppm
# Procedure, shortened: as §1
# [11] = disease control rating, foliar spray on wheat, 400 ppm (+++ at 100 ppm)
# [12] = foliar, rate 200 ppm, foliar spray on squash
SMILES,"mortality at 200 ppm [2, 12] [%]","mortality at 400 ppm ([2]; foliar, foliar spray on squash) [%]",pest or weed control at 400 ppm [3] [%],pest or weed control at 400 ppm [4] [%],pest or weed control at 400 ppm [5] [%],pest or weed control at 400 ppm [6] [%],pest or weed control at 400 ppm [8] [%],mortality at 12 ppm (corn rootworm; CRW rate 12.00 ppm) [%],mortality at 24 ppm (corn rootworm) [%],"mortality at 200 ppm [9, 12] [%]","mortality at 400 ppm ([9]; foliar, foliar spray on squash) [%]","mortality at 200 ppm [10, 12] [%]","mortality at 400 ppm ([10]; foliar, foliar spray on squash) [%]",other results
"COc1ccc2nccc(NCCc3ccccc3)c2c1 [Example 1, 6-methoxy-N-(2-phenylethyl)-4-quinolineamine]",–,–,–,–,–,–,–,–,–,–,–,–,–,"LEAF BLOT [1]: - (0-19% control at 400 ppm); mortality at 200 ppm ([2]; SAW, SM & MA RATE 200 PPM): 0%; GRAY MOLD ([3]; disease control rating, spray on grape berries, 400 ppm (+++ at 100 ppm)): + (20-89% control at 400 ppm); DOWN MDEW ([4]; disease control rating, foliar spray on squash, 400 ppm (+++ at 100 ppm)): ++ (90-100% control at 400 ppm); POWD MDEW [5, 11]: + (20-89% control at 400 ppm); LEAF RUST [6, 11]: + (20-89% control at 400 ppm); APPL SCAB [7]: - (0-19% control at 400 ppm); RICE BLAST ([8]; disease control rating, foliar spray on rice, 400 ppm (+++ at 100 ppm)): + (20-89% control at 400 ppm); mortality at 12 ppm (corn rootworm; CRW RATE 12.00 PPM): 0%; mortality at 200 ppm ([9]; SAW, SM & MA RATE 200 PPM): 0%; mortality at 200 ppm ([10]; SAW, SM & MA RATE 200 PPM): 0%"
"Fc1cccc2c(OCCCCCCCCOc3ccccc3)ccnc12 [Example 285, 8-fluoro-4-[(8-phenoxyoctyl)oxy]quinoline]",0,0,0 to 19,0 to 19,0 to 19,0 to 19,0 to 19,0,0,40,0,80,0,–
"Cc1cc(OCCc2ccc(C(C)(C)C)cc2)c2cc(Cl)ccc2n1 [Example 286, 6-chloro-2-methyl-4-[2-[4-(t-butyl)phenyl]ethoxy]quinoline]",0,0,0 to 19,0 to 19,20 to 89,20 to 89,0 to 19,0,0,0,0,0,0,–
"Fc1cccc2c(OCCCCCCOc3ccccc3)ccnc12 [Example 287, 8-fluoro-4-[(6-phenoxyhexyl)oxy]quinoline]",0,0,0 to 19,90 to 100,0 to 19,20 to 89,0 to 19,0,0,0,0,80,0,–
"CC(C)(CNc1ccnc2c(Cl)cccc12)c1ccccc1 [Example 288, 8-chloro-N-(2-methyl-2-phenylpropyl)-4-quinolinamine]",0,0,0 to 19,20 to 89,0 to 19,0 to 19,20 to 89,0,0,0,0,0,0,–
"CC(C)(CNc1ccnc2c(F)cccc12)c1ccccc1 [Example 289, 8-fluoro-N-(2-methyl-2-phenylpropyl)-4-quinolinamine]",0,0,0 to 19,90 to 100,20 to 89,90 to 100,90 to 100,0,0,0,0,0,0,–
"COc1ccc2nc(C)cc(NCCc3cccc(Oc4ccccc4)c3)c2c1 [Example 290, 6-methoxy-2-methyl-N-[2-(3-phenoxyphenyl)ethyl]-4-quinolinamine]",0,0,0 to 19,90 to 100,0 to 19,20 to 89,90 to 100,0,0,80,0,80,0,–
"Fc1cccc2c(NCCc3ccc(OCc4ccccc4)cc3)ccnc12 [Example 291, 8-fluoro-N-[2-[4-(phenylmethoxy)phenyl]ethyl]-4-quinolinamine]",0,0,0 to 19,90 to 100,90 to 100,90 to 100,90 to 100,0,0,0,0,100,0,–
"Fc1ccc2c(OCCOc3ccc(Br)cc3)ccnc2c1 [Example 292, 7-fluoro-4-[2-(4-bromophenoxy)ethoxy]quinoline]",0,0,0 to 19,0 to 19,0 to 19,0 to 19,0 to 19,0,0,0,0,30,0,–
"Oc1ccc(CCNc2ccnc3c(F)cccc23)cc1 [Example 293, N-[2-(4-hydroxyphenyl)ethyl]-8-fluoro-4-quinoline]",0,0,0 to 19,0 to 19,0 to 19,90 to 100,0 to 19,0,0,0,0,0,0,–
"Fc1cccc2c(OCCCc3cccc(C(F)(F)F)c3)ccnc12 [Example 294, 8-fluoro-4-[3-[3-(trifluoromethyl)phenyl]propoxy]quinoline]",0,0,0 to 19,0 to 19,0 to 19,0 to 19,0 to 19,0,0,0,0,0,0,–
"Fc1cccc2c(OC3CCCCC3c3ccccc3)ccnc12 (stereo not shown) [Example 295, 8-fluoro-4-(2-phenylcyclohexyloxy)quinoline]",0,0,0 to 19,90 to 100,20 to 89,20 to 89,20 to 89,0,0,0,0,0,0,–
